Counter-ions that a name gives are not always drawn. Like-named read-outs stand apart in the source and are kept apart here.
What was measured:
human enteropeptidase [1] = target: T1, human enteropeptidase (Homo sapiens, UniProt P98073); assay: Human enteropeptidase enzyme assay; type: biochemical
T1 construct: purchased ITSI-Biosciences, LLC #REN-260
Protocol: Human recombinant enteropeptidase (#REN-260, ITSI-Biosciences, LLC) was diluted with an assay buffer (50 mM tricine (pH 8.0), 0.01(w/v)% Tween 20, 10 mM CaCl2) to prepare a 24 mU/mL enzyme solution. Subsequently, 5FAM–Abu–[…]CPQ2)–Lys–Lys–NH2 (purity: 97.2%, CPC Scientific, Inc.) was diluted with an assay buffer to prepare a 2.1 μM substrate solution. Compounds were dissolved in DMSO and then diluted in the assay buffer. The compound solution (5 μL/well) and the substrate solution (5 μL/well) were added to a 384-well black plate (#784076, Greiner Bio-One) and mixed. Then, the enzyme solution (5 μL/well) was added to the plate and mixed to start the reaction. The fluorescence intensity was measured at an excitation wavelength of 485 nm and a fluorescence wavelength of 535 nm using a fluorescence plate reader EnVision (PerkinElmer Inc.). Also, the same reaction as above was performed except that the test compound was not added (test compound non-supplemented group). In addition, the same reaction as above was performed except that neither the test compound nor the enzyme was added (control group).
Inhibition rate (%) = (1 – (fluorescence intensity of the test compound supplemented group – fluorescence intensity of the control group)/(fluorescence intensity of the test compound non-supplemented group – fluorescence intensity of the control group)) × 100.

[2] = PAMPA (parallel artificial membrane permeability assay); type: in vitro ADME; conditions: for Papp: PAMPA
human enteropeptidase [3] = target: T1, human enteropeptidase; assay: Dissociation assay (recovery of active enzyme after rapid dilution); type: biochemical; conditions: rapid dilution after 2 h preincubation of compound and enzyme
Text: Although not all reaction constants for 1c could be identified, the in vitro IC50 value could be used as an indicator of the combination of k1, k–1, and k2. In this case, the IC50 value of a compound is derived from its affinity for enteropeptidase (k1 and k–1) and its reactivity against enteropeptidase (k2). […] As the affinity of a compound for enteropeptidase is expected to largely contribute to the IC50 value based on initial velocities (IC50(initial)) relative to the IC50 value based on the steady state (IC50(app)), we performed chemical modifications based on IC50(initial). […] Because T1/2 can be an indicator of k3, we focused on compounds with low IC50(initial) values and long T1/2 values.
For dissociation assay, compounds were dissolved in DMSO and then diluted in assay buffer (50 mM Tricine pH 8.0, 0.01(w/v)% Tween20, 10 mM CaCl2). 10 μL of compound solution was added in 96-well plate (corning), and then, 10 μL of 100 mU/mL human recombinant enteropeptidase (ITSI-Biosciences) solution was added into the plate and incubated at room temperature for 2 h. […] After incubation, 2 μL of the compound-enzyme mixture was transferred to a 96-well black plate (Corning) and 200 μL of substrate solution (3 μM 5FAM–Abu–[…]CPQ2)–Lys–Lys–NH2 (CPC Scientific)) was added into the well. By rapid dilution, the inhibitor concentration went to 10-fold below the IC50 from 10-fold above the IC50. The fluorescence was measured each 2 min at excitation wavelength 485 nm and emission wavelength 535 nm by EnVision (Perkin Elmer). The progress curves were fitted to following equation to determine the values for koff and dissociation half-life T1/2 according to the following equations. [drawing 4] 1 where t is time and F is fluorescence from initial rate vo to steady state rate vs. [drawing 5] 2

[4] = Aqueous stability at pH 1.2/6.8; type: physicochemical; conditions: 24 h; for stability at pH 1.2 (% decomposed): pH 1.2, 37 °C; for stability at pH 6.8 (% decomposed): pH 6.8, 37 °C
Protocol: Sample solutions in pH 1.2/6.8 media (first/second fluids for the disintegration test in the Japanese Pharmacopoeia 17th edition, including 10% dimethyl sulfoxide if needed, 10 μg/mL) were prepared for the compounds and incubated at 37 °C. The sample solutions were measured initially and at 24 h using HPLC, and peak analysis was conducted. Residual contents (%) of the compounds in pH 1.2/6.8 media at 37 °C after 24 h of incubation of the initial solutions were calculated using the peak areas.

[5] = Kinetic aqueous solubility at pH 1.2/6.8; type: physicochemical; conditions: aqueous medium, kinetic from dmso stock
High-Fat-Diet-Fed Mice = assay: Increase in fecal protein output in high-fat-diet-fed mice; type: in vivo, mouse; conditions: 10 mg/kg, oral
Protocol: A high-fat diet (HFD)-fed mouse (D12079B diet, male, 14–21 weeks old) was used for the in vivo assay. For compound screening, mice were orally administered with either the test compound (10 mg/kg) or 0.5% methylcellulose (MC) as a vehicle control. For the assessment of efficacy by systemic exposure of the compound, mice were subcutaneously administered with compound 2a (10 mg/kg) or saline as a vehicle control and compared with those administered oral treatment (60 mg/kg). Doses were selected to achieve equivalent systemic exposure as the area under the curve over 24 h based on pharmacokinetic data of both oral and subcutaneous administration. Whole feces were collected overnight, and the fecal protein output was evaluated as described previously.[33]

DIO mice = conditions: growth phase; cited from earlier work
[6] = 6 min, supplement csv, unit inferred, read-out: human enteropeptidase IC50 (6 min)
[7] = 120 min, supplement csv, unit inferred, read-out: human enteropeptidase IC50 (120 min)
[8] = 6 min incubation of enzyme, substrate and compound at room temperature, 95% confidence intervals in parentheses, read-out: Human enteropeptidase IC50(initial)
[9] = 120 min incubation of enzyme, substrate and compound at room temperature, 95% confidence intervals in parentheses, read-out: Human enteropeptidase IC50(app)
[10] = pH 1.2, simulated gastric fluid, read-out: Kinetic aqueous solubility at pH 1.2
[11] = pH 6.8, aqueous buffer, read-out: Kinetic aqueous solubility at pH 6.8

T1 sequence (P98073 whole entry): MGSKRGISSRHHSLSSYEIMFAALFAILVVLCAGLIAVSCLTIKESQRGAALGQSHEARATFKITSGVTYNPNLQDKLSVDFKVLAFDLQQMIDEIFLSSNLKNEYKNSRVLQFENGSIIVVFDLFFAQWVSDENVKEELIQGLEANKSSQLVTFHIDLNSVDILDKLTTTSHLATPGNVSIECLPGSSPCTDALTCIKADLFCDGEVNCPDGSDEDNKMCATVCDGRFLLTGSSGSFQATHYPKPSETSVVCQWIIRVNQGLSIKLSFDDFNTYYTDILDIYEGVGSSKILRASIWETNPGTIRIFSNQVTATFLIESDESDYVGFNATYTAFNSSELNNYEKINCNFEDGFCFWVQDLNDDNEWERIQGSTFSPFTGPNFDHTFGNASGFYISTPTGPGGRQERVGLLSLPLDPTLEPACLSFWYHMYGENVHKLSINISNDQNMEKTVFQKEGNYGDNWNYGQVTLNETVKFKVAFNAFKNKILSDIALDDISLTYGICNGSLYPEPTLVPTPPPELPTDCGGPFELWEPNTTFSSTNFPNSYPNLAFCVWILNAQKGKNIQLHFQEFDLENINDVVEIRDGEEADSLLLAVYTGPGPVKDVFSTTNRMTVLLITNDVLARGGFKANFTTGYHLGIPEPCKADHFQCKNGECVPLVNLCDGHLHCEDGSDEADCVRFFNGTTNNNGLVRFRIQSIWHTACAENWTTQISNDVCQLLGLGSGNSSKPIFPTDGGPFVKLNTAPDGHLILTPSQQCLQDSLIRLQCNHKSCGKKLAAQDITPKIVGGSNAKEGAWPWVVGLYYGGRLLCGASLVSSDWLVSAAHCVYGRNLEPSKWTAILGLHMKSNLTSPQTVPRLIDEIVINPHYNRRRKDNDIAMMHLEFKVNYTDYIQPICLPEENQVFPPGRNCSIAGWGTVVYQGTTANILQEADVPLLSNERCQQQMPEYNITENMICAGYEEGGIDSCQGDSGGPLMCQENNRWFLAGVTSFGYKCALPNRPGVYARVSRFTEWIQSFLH

Row | SMILES | IC50 (human enteropeptidase [1]; [8]) [µM] | IC50 (human enteropeptidase [1]; [9]) [µM] | fecal protein output (fold of 2a) (High-Fat-Diet-Fed Mice) | other results
1 | Cc1cc(OC(=O)c2ccc(NC(=N)N)cc2)no1.Cl [1a] |  |  |  | IC50 (human enteropeptidase [1]; [6]): 1.5 µM; Papp ([2]; pH 7.4, read-out: PAMPA at pH 7.4): 0.3 ×10⁻⁶ cm/s; Papp ([2]; pH 5.0, read-out: PAMPA at pH 5.0): 0.5 ×10⁻⁶ cm/s
2 | CS(=O)(=O)O.N=C(N)Nc1ccc(C(=O)Oc2ccccc2)cc1 [1b] |  |  |  | IC50 (human enteropeptidase [1]; [6]): 5.6 µM; IC50 (human enteropeptidase [1]; [7]): 0.4 µM; PAMPA at pH 5.0 ([2]; pH 5.0): <2 nm/sec; PAMPA at pH 7.4 ([2]; pH 7.4): <2 nm/sec
3 | N=C(N)Nc1ccc(C(=O)Oc2ccc(CC(=O)NCC(=O)O)cc2)cc1.O=C(O)C(F)(F)F [1c, N-({4-[(4-Carbamimidamidobenzoyl)oxy]phenyl}acetyl)glycine Trifluoroacetic Acid Salt] |  |  |  | IC50 (human enteropeptidase [1]; [6]): 0.54 µM; IC50 (human enteropeptidase [1]; [7]): 0.03 µM; PAMPA at pH 5.0 ([2]; pH 5.0): 2 nm/sec; PAMPA at pH 7.4 ([2]; pH 7.4): 2 nm/sec
4 | N=C(N)Nc1ccc(C(=O)Oc2ccc(CC(=O)N[C@@H](CC(N)=O)C(=O)O)cc2)cc1 [2b, N^2-({4-[(4-Carbamimidamidobenzoyl)oxy]phenyl}acetyl)-L-asparagine Trifluoroacetic Acid Salt] | 0.31 | 0.023 |  | 
5 | N=C(N)Nc1ccc(C(=O)Oc2ccc(CC(=O)N[C@@H](CCC(=O)O)C(=O)O)cc2)cc1 [2c, N-({4-[(4-Carbamimidamidobenzoyl)oxy]phenyl}acetyl)-L-glutamic Acid Hydrochloride] | 0.12 | 0.0079 |  | 
6 | N=C(N)Nc1ccc(C(=O)Oc2ccc3c(c2)OC[C@@H]3CC(=O)N[C@@H](CC(=O)O)C(=O)O)cc1 [(R)-5b, N-({(3R)-6-[(4-Carbamimidamidobenzoyl)oxy]-2,3-dihydro-1-benzofuran-3-yl}acetyl)-L-aspartic Acid] | 0.084 | 0.0077 | 1.26 fold of 2a | 
7 | CC(=O)N[C@@H](C)C(=O)N[C@@H](Cc1ccccc1)C(=O)N[C@@H](CCCCN)B1O[C@@H]2C[C@@H]3C[C@@H](C3(C)C)[C@]2(C)O1 [OBE-2008] |  |  |  | rate of body weight gain (DIO mice): significantly reduced

More lines, main results first:

Row | IC50 (human enteropeptidase [1]; [8]) [µM] | IC50 (human enteropeptidase [1]; [9]) [µM] | SMILES | fecal protein output (fold of 2a) (High-Fat-Diet-Fed Mice) | other results
8 | > 3.3 | 0.68 | Cc1cc(C(=O)Oc2ccc(CC(=O)N[C@@H](CC(=O)O)C(=O)O)cc2)ccc1NC(=N)N [3a, N-({4-[(4-Carbamimidamido-3-methylbenzoyl)oxy]phenyl}acetyl)-L-aspartic Acid] |  | fold decrease in IC50(initial) relative to 2a (human enteropeptidase [1]; 6 min, methyl group at the 3-position): more than 30 fold
9 | 0.94 | 0.054 | Cc1cc(NC(=N)N)ccc1C(=O)Oc1ccc(CC(=O)N[C@@H](CC(=O)O)C(=O)O)cc1 [3b, N-({4-[(4-Carbamimidamido-2-methylbenzoyl)oxy]phenyl}acetyl)-L-aspartic Acid] |  | T1/2, half-time of dissociation from human enteropeptidase (human enteropeptidase [3]): >120 min
10 | 0.057 | 0.0056 | N=C(N)Nc1ccc(C(=O)Oc2ccc(CC(=O)N[C@@H](CC(=O)O)C(=O)O)cc2)c(Cl)c1 [3c, N-({4-[(4-Carbamimidamido-2-chlorobenzoyl)oxy]phenyl}acetyl)-L-aspartic Acid] |  | T1/2, half-time of dissociation from human enteropeptidase (human enteropeptidase [3]): 14 min
11 | 0.0074 | 0.00081 | N=C(N)Nc1ccc(C(=O)Oc2ccc(CC(=O)N[C@@H](CC(=O)O)C(=O)O)cc2)c(F)c1 [3d, N-({4-[(4-Carbamimidamido-2-fluorobenzoyl)oxy]phenyl}acetyl)-L-aspartic Acid] |  | T1/2, half-time of dissociation from human enteropeptidase (human enteropeptidase [3]): 6.1 min
12 | 0.032 | 0.0016 | N=C(N)Nc1ccc(C(=O)Oc2cccc(CC(=O)N[C@@H](CC(=O)O)C(=O)O)c2)cc1.O=C(O)C(F)(F)F [4a, N-({3-[(4-Carbamimidamidobenzoyl)oxy]phenyl}acetyl)-L-aspartic Acid Trifluoroacetic Acid Salt] | 0.97 fold of 2a | stability at pH 1.2 (% decomposed) [4]: 2.8 % decomposed; stability at pH 6.8 (% decomposed) [4]: 5.8 % decomposed; solubility kinetic [5, 10]: > 86 µg/mL; solubility kinetic [5, 11]: > 92 µg/mL
13 | 0.013 | 0.00082 | N=C(N)Nc1ccc(C(=O)Oc2cccc(C(=O)N[C@@H](CC(=O)O)C(=O)O)c2)cc1.O=C(O)C(F)(F)F [4b, N-{3-[(4-Carbamimidamidobenzoyl)oxy]benzoyl}-L-aspartic Acid Trifluoroacetic Acid Salt] | 0.82 fold of 2a | stability at pH 1.2 (% decomposed) [4]: 3.9 % decomposed; stability at pH 6.8 (% decomposed) [4]: 8.6 % decomposed; solubility kinetic [5, 10]: > 91 µg/mL; solubility kinetic [5, 11]: > 89 µg/mL
14 | 0.065 | 0.0032 | N=C(N)Nc1ccc(C(=O)Oc2ccc(C(=O)N[C@@H](CC(=O)O)C(=O)O)cc2)cc1.O=C(O)C(F)(F)F [4c, N-{4-[(4-Carbamimidamidobenzoyl)oxy]benzoyl}-L-aspartic Acid Trifluoroacetic Acid Salt] | 0.88 fold of 2a | solubility kinetic [5, 10]: 69 µg/mL; solubility kinetic [5, 11]: > 88 µg/mL
15 | 0.18 | 0.014 | N=C(N)Nc1ccc(C(=O)Oc2ccc3c(c2)OC(CC(=O)N[C@@H](CC(=O)O)C(=O)O)C3)cc1 (stereo partly drawn) [5a, N-({6-[(4-Carbamimidamidobenzoyl)oxy]-2,3-dihydro-1-benzofuran-2-yl}acetyl)-L-aspartic Acid] |  | 
16 | 0.026 | 0.0018 | N=C(N)Nc1ccc(C(=O)Oc2cccc(C3=NO[C@@](CC(=O)O)(C(=O)O)C3)c2)cc1 [6c, (5S)-3-{3-[(4-Carbamimidamidobenzoyl)oxy]phenyl}-5-(carboxymethyl)-4,5-dihydro-1,2-oxazole-5-carboxylic Acid] | 1.23 fold of 2a | 

From paper PMC9234964, “Design, Synthesis, and Biological Evaluation of a Novel Series of 4-Guanidinobenzoate Derivatives as Enteropeptidase Inhibitors with Low Systemic Exposure for the Treatment of Obesity” (Journal of Medicinal Chemistry, 2022)
